Calls of active or inactive are those of the source. No rule for the calls is given here.
Target: Induced myeloid leukemia cell differentiation protein Mcl-1 (Homo sapiens) (UniProt Q07820)
Assay: Mcl-1/Bim interaction regulators – biochemical, bead-based flow cytometry, multiplexed, human, dose response (AID 1329)
Details: Bim peptide-Mcl-1 binding, MCF

Sequence of Induced myeloid leukemia cell differentiation protein Mcl-1 (Homo sapiens) (Q07820 whole entry, looked up): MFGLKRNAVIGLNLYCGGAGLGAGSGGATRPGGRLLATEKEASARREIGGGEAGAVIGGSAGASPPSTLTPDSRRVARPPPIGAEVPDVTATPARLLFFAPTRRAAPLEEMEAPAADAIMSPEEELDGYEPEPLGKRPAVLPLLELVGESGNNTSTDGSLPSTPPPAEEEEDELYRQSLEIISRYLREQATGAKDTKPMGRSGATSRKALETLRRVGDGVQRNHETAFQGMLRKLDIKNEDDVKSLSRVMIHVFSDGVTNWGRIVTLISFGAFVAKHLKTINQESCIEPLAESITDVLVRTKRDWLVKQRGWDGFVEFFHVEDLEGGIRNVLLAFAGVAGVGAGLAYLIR

Structure (SMILES) | EC50
COc1cc(/C=N/Nc2nn3cnnc3c3ccccc23)ccc1O | inactive

Same assay, conditions: Bim peptide-Mcl-1 binding, MCF

Structure (SMILES) | percent span
COc1cccc(/C=C2/SC(=O)N(C)C2=O)c1OCc1ccc(C(=O)O)cc1 | inactive
O=[N+]([O-])c1ccc(-c2cn(-c3ccc(Cl)cc3)c(=S)[nH]2)cc1 | inactive
COc1ccc2nc(NC(=O)c3ccc(-c4cccc([N+](=O)[O-])c4)o3)sc2c1 | inactive
CCOC(=O)/C(=C\c1ccc(Cl)cc1)c1nc2sc(C)c(C)c2c(=O)[nH]1 | inactive
S=C(Nc1ccc(N2CCOCC2)cc1)Nc1ccc2nc(-c3ccco3)c(-c3ccco3)nc2c1 | inactive
COc1ccc(N2C(=O)/C(=C/c3cccs3)NC2=S)cc1 | inactive
CCOC(=O)c1nn(-c2ccccc2)c(C#N)c1N | inactive
CCN1CCN(c2cc(C)c3cc(NC(=S)N4CCN(c5ccccc5)CC4)ccc3n2)CC1 | inactive
Cc1ccc(-c2cc(C(=O)Nc3nccs3)c3ccccc3n2)o1 | inactive
CCOc1ccccc1-n1c(=O)c2ccccc2c2ccccc2c1=O | inactive
COc1ccc(C2=Nn3c(nnc3-c3ccccn3)SC2)cc1OC | inactive
O=C(NC1=C(Nc2ccc(Cl)cc2)C(=O)c2ccccc2C1=O)c1ccccc1 | inactive
Cc1ccc2c(C)c(C(=O)Nc3nnc(C)s3)oc2c1 | inactive
Cc1cccc(C(=O)N=c2c(C#N)cc3c(=O)n4cccc(C)c4nc3n2Cc2ccco2)c1 | inactive
CNC(CC(=O)c1ccc([N+](=O)[O-])cc1)C(Cl)(Cl)Cl (configuration not stated) | inactive
COc1ccc(Cc2c(O)nc(SC)n(C(C)=O)c2=O)cc1 | inactive
CC1(C)CC(=O)C(C=NCCN2CCN(CCc3ccccc3)CC2)=C(O)C1 | inactive
COc1ccc(OC)c(NC(=O)CCCN2C(=S)NC(C)(C)CC2C)c1 (configuration not stated) | inactive
CCC(CC)C(=O)Nc1cccc(S(=O)(=O)c2cccc(NC(=O)C(CC)CC)c2)c1 | inactive
Cc1ccc(N=Cc2c(O)n(-c3ccc4c(c3)OCO4)c(=O)c3ccccc23)cc1 | inactive
COc1cc(CNc2ccc(N3CCCC3)cc2)cc(Cl)c1OC | inactive
CN=C(NC1CCCCC1)c1ccc(Cl)cc1 | inactive
CC(C)n1nnnc1SCC(=O)N1CCN(C(=O)c2ccco2)CC1 | inactive
Cc1ccc(-c2cc(C(=O)Nc3ccccc3C)c3ccccc3n2)o1 | inactive
CCOC(=O)N1CCC(c2cc(=O)n(-c3ccccc3)[nH]2)CC1 | inactive
O=C(c1cc2ccccc2oc1=O)N(c1ccccc1)C1C=CS(=O)(=O)C1 (configuration not stated) | inactive

Structure (SMILES) | percent span
O=C(CCCN1C(=O)c2cccc3cccc(c23)C1=O)N1CCN(c2ccccn2)CC1 | inactive
CCOc1cc(NC(=S)NC)c(OCC)cc1NC(=O)c1ccc(OC)cc1 | inactive
O=C(C1=NN[C@@H]2C(=O)N(c3cccc(F)c3)C(=O)[C@H]12)c1ccc2ccccc2n1 | inactive
COc1ccc(N2C(=O)C(Cl)=C(Nc3c(C)n(C)n(-c4ccccc4)c3=O)C2=O)cc1 | inactive
CC(NCc1ccc(-c2ccccc2)cc1)C(O)c1ccccc1 (configuration not stated) | inactive
Cc1cc(C)c(S(=O)(=O)/N=C2/C=C(SCC(=O)O)C(=O)c3ccccc32)cc1C | inactive
Cc1ccc(OCc2cn3cccnc3n2)cc1 | inactive
O=[N+]([O-])c1ccc(N2CCN(c3ccc(O)cc3)CC2)c(Cl)c1 | inactive
OCCC1CN(Cc2nc3c(s2)CCCC3)CCN1Cc1ccsc1 (configuration not stated) | inactive
CC(C)CNC(=O)c1cccc(NC(=O)c2ccc(Cl)c([N+](=O)[O-])c2)c1 | inactive
CC1CC2=C(NC(=S)NC2c2cccc(F)c2)/C(=C/c2cccc(F)c2)C1 (configuration not stated) | inactive
Cc1nn(-c2ccc(Cl)cc2)c(Cl)c1/C=C(\C#N)C(N)=O | inactive
Clc1ccc(N=c2ssnc2Cl)nc1 | inactive
O=C(C[n+]1ccc(-c2nnc3n2CCC3)cc1)c1ccc(Cl)c(Cl)c1 | inactive
Nc1cccc(-c2cn3cccnc3n2)c1 | inactive
COc1ccc(C(=O)NC(=S)N2CCNC(=O)C2)cc1Br | inactive
COc1cc(/C=C2\SC(=S)NC2=O)ccc1OS(=O)(=O)c1ccccc1 | inactive
CCOc1cccc(CNc2ccc(O)cc2)c1OCc1ccc(Cl)cc1 | inactive
Cc1ccc(-c2cc(C(=O)Nc3ccccn3)c3ccccc3n2)o1 | inactive
Cc1csc(SCCn2c(N3CCN(c4ccccc4)CC3)nc3c2c(=O)[nH]c(=O)n3C)n1 | inactive
CCOc1ccccc1CNc1ccc(O)cc1 | inactive
CCOC(=O)CSC1=NC(=O)/C(=C\c2ccc(OC(C)=O)cc2)S1 | inactive
C/C(=N\NC(=O)COc1ccc(C#N)cc1)c1ccccc1OC(F)F | inactive
Nc1c(C(=O)NCc2ccco2)sc2nc3c(cc12)C(=O)CCC3 | inactive
CCN=c1scc(C)n1/N=C/c1ccc(O)c(O)c1O | inactive
O=C(CSc1nc2ccsc2c(=O)n1Cc1ccc(C(=O)O)cc1)NCC1CCCO1 (configuration not stated) | inactive

Structure (SMILES) | percent span
Cc1csc(Nc2ccccc2C(F)(F)F)n1 | inactive
COc1ccccc1N(C)S(=O)(=O)c1ccc(C(=O)OCC(N)=O)cc1 | inactive
COc1cc(N2CCOCC2)ccc1C=C1C(=O)NC(=O)NC1=O | inactive
CCSc1ncnc2sc(C)c(C)c12 | inactive
Clc1ccc2c(N/N=C/c3cccc(Br)c3)ccnc2c1 | inactive
COc1ccc(CCNC(=O)c2ccc3nc(-c4ccco4)c(-c4ccco4)nc3c2)cc1OC | inactive
Cc1cc2nc(/C(C#N)=C/c3ccncc3)[nH]c2cc1C | inactive
COc1cc(/C=C2/NC(=O)N(Cc3ccccc3F)C2=O)ccc1O | inactive
COc1ccc(CCNC(=O)c2cc(-c3ccccn3)nc3c(Cl)cccc23)cc1OC | inactive
Cc1ccc(O)c(NC2=C(Cl)C(=O)N(Cc3ccccc3)C2=O)c1 | inactive
Cc1cccc(N=C2NC(=O)/C(=C/C=C/c3ccco3)S2)c1C | inactive
COc1ccc(N=C2NC(=O)/C(=C\C=C\c3ccco3)S2)cc1 | inactive
O=C1NC(=O)C2(Cc3c(nc4ccccn4c3=O)N3CCCCCC32)C(=O)N1Cc1ccccc1 (configuration not stated) | inactive
Cc1cc(C)nc(SCc2cc(=O)c(OC(=O)c3cccc([N+](=O)[O-])c3)co2)n1 | inactive
CCOC(=O)c1c2c3c(cccc3[nH]c1=O)C(=O)c1ccccc1-2 | inactive
C(=C\c1ccccc1)/CSc1nnc(-c2ccccn2)n1Cc1ccco1 | inactive
O=C(/C=C/c1ccc(-c2ccccc2)o1)c1ccccc1 | inactive
CCN(CC)c1ccc(NC(=O)c2ccccc2)cc1S(=O)(=O)Nc1ccccc1OC | inactive
Cc1cc(N)ccc1N1CCCC1 | inactive
Cc1ccc(Nc2nc(-c3c(C)nc4ncccn34)cs2)cc1 | inactive
COc1cc(NC(=O)c2ccc3c(c2)OCO3)ccc1NC(=O)c1ccco1 | inactive
O=C(Cc1ccccc1)N/N=C/c1cccn1-c1ccc([N+](=O)[O-])cc1 | inactive
CCN(CC)CCN(C(=O)c1ccc(N2C(=O)CCC2=O)cc1)c1nc2cc3c(cc2s1)OCCO3 | inactive
CC(C)(C)C1CCC(=NNC(=O)c2cc3c(s2)CCCC3)CC1 (configuration not stated) | inactive
OC(CNC1CCCCC1)COCCOc1ccc(Br)cc1 (configuration not stated) | inactive
O=C(NCCCN1CCCC1=O)NC1CCCCC1 | inactive

Structure (SMILES) | percent span
Cc1onc(-c2ccccc2Cl)c1C(=O)Nc1nn[nH]n1 | inactive
Cc1c(Cc2ccccc2)sc(N)c1C(N)=O | inactive
COc1ccc(NC(=O)/C(C#N)=C/c2c(C)nn(-c3ccc(F)cc3)c2Cl)cc1Cl | inactive
CNC(=O)c1c(N)sc2c1CCCCC2 | inactive
CCN(CC)c1ccc(-c2nn3c(-c4n[nH]c5c4CCC5)nnc3s2)cc1 | inactive
O=C(Nc1ccc2nc(-c3ccco3)c(-c3ccco3)nc2c1)NC1CC1 | inactive
Cc1ccc(C(=O)CCC(=O)Nc2ccc(Cl)c(S(=O)(=O)Nc3cccc(Cl)c3)c2)cc1 | inactive
Cc1ccc(/C=C2\CCCC3=C2NC(=S)NC3c2ccc(C)cc2)cc1 (configuration not stated) | inactive
CC1Nc2ccccc2C(=O)N1NS(C)(=O)=O (configuration not stated) | inactive
COc1cc(/C=C2/NC(=O)N(Cc3ccccc3F)C2=O)cc(OC)c1O | inactive
O=C(NCCCO)Nc1ccc2nc(-c3ccco3)c(-c3ccco3)nc2c1 | inactive
CC(=O)c1ccc(NC(=O)c2ccc3nc(-c4ccco4)c(-c4ccco4)nc3c2)cc1 | inactive
CCCCOC(=O)c1nc(Cl)c(Cl)c(N)c1Cl | inactive
CNc1ccccc(C(=O)/C=C/c2ccccc2OC)c1=O | inactive
CN(Cc1ccccc1)c1nc2c(c(=O)[nH]c(=O)n2C)n1C | inactive
COc1cc(C=Nc2cccc(C)c2)c(O)c([N+](=O)[O-])c1 | inactive
Cc1cc(C)cc(-n2c(C)nc3cc(C(=O)O)ccc32)c1 | inactive
COc1ccc(NC(=O)c2ccc3c(c2)NC(=O)CS3)cc1S(=O)(=O)Nc1ccc(Br)cc1 | inactive
COc1cc(/C=N/Nc2nc3c(c(=O)n(C)c(=O)n3C)n2Cc2ccccc2)ccc1OC(=O)c1ccco1 | inactive
CC(=O)Nc1ccc(NC2=C(Cl)C(=O)c3ccccc3C2=O)cc1 | inactive
COc1cc(CNc2ccc3[nH]c(=O)[nH]c3c2)cc(Br)c1OCC(=O)NC(C)(C)C | inactive
COC(=O)c1c(NC(=O)COc2ncnc3ccccc23)sc(C)c1C | inactive
CCOC(=O)C1=C(Cc2ccc(OC)cc2)C(=O)c2ccccc2C1=O | inactive

Source: PubChem BioAssay AID1329 (NMMLSC, 2008)
